According to US11452716B2, “Pharmaceutical composition and use thereof” (Ascentage Pharma (Suzhou) Co., Ltd., priority 2018, dated 2022):
Values joined by “and” are separate entries in the source; they are usually repeats but may differ in a detail not shown here. Equal values may be shown once.

Experiments:
[1] = test system: liposarcoma patient-derived xenograft (LP-19-0029 PDX); experiment: Antitumor activity in subcutaneous liposarcoma patient-derived xenograft (LP-19-0029 PDX) model; assay type: in vivo, Balb/c nude mice; conditions: for T/C (%) @D 21 / RTV @D 21: Embodiment 2, day 21, Compound C 80 mg/kg p.o. Q2D x 16D, Palbociclib 50 mg/kg p.o. QD x 3W; for RTV @D 21: mean ± SEM, n=5; for RTV @D 22 / T/C(%) @D 22: day 22, Compound C 40 mg/kg p.o. q.2d x 3w, Palbociclib 50 mg/kg p.o. q.d x 3w, Ribociclib 75 mg/kg p.o. q.d x 3w
Excerpt: Animals: Balb/c nude, female, 6-8 weeks, weighing approximately 18-22 g. A total of 40 (20 plus 100%) will be needed for the study, which will be purchased from Shanghai SLAC Laboratory Animal Co., LTD. Generation of the subcutaneous liposarcoma patient-derived xenograft (LP-19-0029 PDX) Model: The LP-19-0029 PDX model was originally established from a surgically resected clinical sample (cancer type: liposarcoma; pathology diagnosis: dedifferentiated liposarcoma), and implanted in nude mice defined as passage 0 (P0). The next passage implanted from P0 tumor was defined as passage 1 (P1), and so on during continual implantation in mice. The frozen tumor fragments will be revived in NOD SCID mice, when the tumors develop to suitable size, they will be passaged to Balb/c nude mice. The P4-P7 tumors will be used for the study. Each mouse was implanted subcutaneously at the right flank with the LP-19-0029 P4 tumor slices (about 30 mm^3) for tumor development. Treatments were started when the average tumor size reached approximately 150 mm^3. The animals were assigned into groups using an Excel-based randomization software performing stratified randomization based upon their tumor volumes. Each group consisted of 5 tumor-bearing mice. [table] Tumor volumes were measured twice weekly in two dimensions using a caliper, and the volume was expressed in mm^3 using the formula: Tumor Volume(mm^3)=0.5a×b^2 where a and b are the long and short diameters of the tumor, respectively. Relative tumor volume (RTV) was calculated using the following formula: RTV=Vt/Vl where Vl and Vt are the average tumor volumes on the first day of treatment (day 1) and the average tumor volumes on a certain time point (day t). Synergy score was calculated using the following formula described in Clarke R. Issues in experimental design and endpoint analysis in the study of experimental cytotoxic agents in vivo in breast cancer and other models[J]. Breast Cancer Research & Treatment, 1997, 46(2-3):255-278, which is incorporated by reference in its entirety: Synergy score=(([…]); where A is RTV value of drug A; B is RTV value of drug B; C is RTV value of vehicle control. AB is RTV value of combination treatment with A and B. Synergy scores: >1 represents synergistic, =1 represents additive, <1 represents antagonistic (referring to Gould S E et al. Translational value of mouse models in oncology drug development. Nature medicine. 2015 21, 431-439). Standard NCI procedures were used to calculate tumor parameters. Percent tumor growth inhibition (% T/C) was calculated as the mean RTV of treated tumors (T) divided by the mean RTV of control tumors (C)×100%. The percentage T/C value is an indication of antitumor effectiveness: a value of T/C<42% is considered significant antitumor activity by the NCI. A T/C value<10% is considered to indicate highly significant antitumor activity, and is the level used by the NCI to justify a clinical trial if toxicity and certain other requirements are met (termed DN-2 level activity). A body weight loss nadir (mean of group) of greater than 20%, or greater than 20% of drug deaths are considered to indicate an excessively toxic dosage. Summary statistics, including mean and the standard error of the mean (SEM), are provided for the tumor volume of each group at each time point. Statistical analysis of difference in the tumor volume among the groups were conducted on the data obtained at the best therapeutic time point after the final dose. A one-way ANOVA was performed to compare the tumor volume and the tumor weight among groups, and when a significant F-statistics (a ratio of treatment variance to the error variance) was obtained, comparisons between groups were carried out with Games-Howell test. All data were analyzed using SPSS 17.0. p<0.05 is considered to be statistically significant. […]

[2] = test system: lung cancer patient-derived xenograft (LU-01-0448 PDX); experiment: Antitumor activity in subcutaneous lung cancer patient-derived xenograft (LU-01-0448 PDX) model; assay type: in vivo, mice; conditions: Embodiment 4; for mRECIST / Response @ D 33: animals per category, PD progressive disease, SD stable disease, PR partial response; for T/C(%) @ D 33 / RTV @ D 33 / Response @ D 33: day 33; for T/C(%) @ D 33 / RTV @ D 33: Compound C 100 mg/kg p.o. QD x 5 D, Palbociclib 50 mg/kg p.o. QD x 21 D; for RTV @ D 33: n=2
Protocol: Tumor volumes were measured twice weekly in two dimensions using a caliper, and the volume was expressed in mm^3 using the formula: Tumor Volume(mm^3)=0.5a×b^2 Relative tumor volume (RTV) was calculated using the following formula: RTV=Vt/Vl Synergy score=(([…]); where A is RTV value of drug A; B is RTV value of drug B; C is RTV value of vehicle control. AB is RTV value of combination treatment with A and B. Synergy scores: >1 represents synergistic, =1 represents additive, <1 represents antagonistic (referring to Gould S E et al. Translational value of mouse models in oncology drug development. Nature medicine. 2015 21, 431-439). Standard NCI procedures were used to calculate tumor parameters. Percent tumor growth inhibition (% T/C) was calculated as the mean RTV of treated tumors (T) divided by the mean RTV of control tumors (C)×100%. The percentage T/C value is an indication of antitumor effectiveness: a value of T/C<42% is considered significant antitumor activity by the NCI. A T/C value<10% is considered to indicate highly significant antitumor activity, and is the level used by the NCI to justify a clinical trial if toxicity and certain other requirements are met (termed DN-2 level activity). A body weight loss nadir (mean of group) of greater than 20%, or greater than 20% of drug deaths are considered to indicate an excessively toxic dosage. Compound C was further tested in combination with palbociclib in another patient-derived xenograft model (LU-01-0448 PDX model). LU-01-0448 PDX model was a subcutaneous lung cancer patient-derived xenograft model, which was established according to the procedures of LP-19-0029 PDX model in embodiment 2. This experiment was carried out according to Table 4 and the procedures described in embodiment 2. [table]

Compound | T/C (%) @D 21 [1] [%] | T/C (%) @D 21 ([1]; listed as compound C) [%] | RTV @D 21 [1] | RTV @35 ([1]; Embodiment 3, @35, Compound C 40 mg/kg, Palbociclib 50 mg/kg, Ribociclib 75 mg/kg) | RTV @D 22 ([1]; Embodiment 3) | T/C(%) @D 22 ([1]; Embodiment 3) | mRECIST [2] | T/C(%) @ D 33 [2] [%] | RTV @ D 33 [2] | Response @ D 33 [2] | T/C(%) @D 22 ([1]; Embodiment 3, listed as palbociclib) [%] | T/C(%) @D 22 ([1]; Embodiment 3, listed as ribociclib) [%]
CCN1[C@@H](C(=O)NC23CCC(C(=O)O)(CC2)CC3)[C@H](c2cccc(Cl)c2F)[C@]2(C(=O)Nc3cc(Cl)ccc32)C12CCCCC2 [Compound C, 4-((3′R,4′S,5′R)-6″-Chloro-4′-(3-chloro-2-fluorophenyl)-1′-ethyl-2″-oxodispiro[cyclohexane-1,2′-pyrrolidine-3′,3″-indoline]-5′-carboxamido)bicyclo[2.2.2]octane-1-carboxylic acid] | 22.28 | 22 | 4.83 ± 1.56 | 10.95 ± 1.66 | 5.24 ± 0.61 | 38.4% and 38.44% | 2/2 SD | 41.43 | 4.85 ± 1.85 | 2/2 PD |  | 
CC(=O)c1c(C)c2cnc(Nc3ccc(N4CCNCC4)cn3)nc2n(C2CCCC2)c1=O [Palbociclib, palbociclib] | 70 |  | 15.19 ± 1.31 |  | 11.36 ± 0.96 | 83.50% | 2/2 PD | 35.71 | 4.18 ± 0.80 | 2/2 PD | 83.5 | 
CN(C)C(=O)c1cc2cnc(Nc3ccc(N4CCNCC4)cn3)nc2n1C1CCCC1 [Ribociclib, ribociclib] |  |  |  |  | 9.77 ± 1.22 | 71.70% |  |  |  |  |  | 71.7
